Data from paper PMC11680164 (Viruses, 2024).
Entries after “also recorded” stand apart in the source; their conditions may differ.

Test system: SARS-CoV-2 P.1 lineage (gamma variant)
Set-up: species or system K18-hACE2 mice
Settings: in vivo

COC(=O)N[C@H](C(=O)N1CCC[C@H]1c1nc(-c2ccc(-c3ccc(-c4c[nH]c([C@@H]5CCCN5C(=O)[C@@H](NC(=O)OC)C(C)C)n4)cc3)cc2)c[nH]1)C(C)C [daclatasvir]
mouse survival: increased mouse survival; also recorded: did not significantly affect
LDH levels in bronchoalveolar lavage (BAL) fluid (cell death, lung necrosis) (mouse): decreased levels
SARS-CoV-2-induced increase in IL-6 (mouse): prevented
SARS-CoV-2-induced increase in KC (mouse): prevented
SARS-CoV-2-induced increase in TNF-α (mouse): prevented
cellular infiltration in BAL fluid (mouse): reduced cellular infiltration
double-stranded RNA (dsRNA) levels in the lungs (mouse): lower levels
loss of body weight (mouse): reduced
lung parenchyma affected by alveolar collapse (mouse): ~10%
reduction of SARS-CoV-2 RNA levels in the lungs (mouse): up to 3 log10
reduction of SARS-CoV-2 titers in the lungs (mouse): up to 3 log10
virus-induced score of clinical severity (mouse): reduced
